The nature of the data set: Half-life was determined. Format: ADME. Particulars: human.

For `C[C@@H](NC(=O)OCC1c2ccccc2-c2ccccc21)C(=O)NC1C(O)C(CO)OC1n1ccc(=O)[nH]c1=O` (some centres undefined), the half-life is 1.5 min.
As for `O=C(N[C@@H](C(=O)NC1C(O)C(CO)OC1n1ccc(=O)[nH]c1=O)c1ccccc1)OCC1c2ccccc2-c2ccccc21` (some centres undefined), the half-life worked out at 2 min.
Next, `COc1ccc(C(OCC2OC(n3ccc(=O)[nH]c3=O)C(NC(=O)[C@@H](CCCCNC(=O)OCC3c4ccccc4-c4ccccc43)NC(=O)OCC3c4ccccc4-c4ccccc43)C2O)(c2ccccc2)c2ccc(OC)cc2)cc1` (some centres undefined): 11.5 min; `O=C(NCCCC[C@@H](NC(=O)OCC1c2ccccc2-c2ccccc21)C(=O)NC1C(O)C(CO)OC1n1ccc(=O)[nH]c1=O)OCC1c2ccccc2-c2ccccc21` (some centres undefined): 1 min.
`COc1ccc(C(OCC2OC(n3ccc(=O)[nH]c3=O)C(NC(=O)[C@@H](C)NC(=O)OCC3c4ccccc4-c4ccccc43)C2O)(c2ccccc2)c2ccc(OC)cc2)cc1` (some centres undefined) displayed a half-life of 13 min.
Next, `O=C(C[C@@H](NC(=O)OCC1c2ccccc2-c2ccccc21)C(=O)NC1C(O)C(CO)OC1n1ccc(=O)[nH]c1=O)OCc1ccccc1` (some centres undefined): 1 min.
As to `N[C@@H]1[C@H](O)[C@@H](CO)O[C@H]1n1ccc(=O)[nH]c1=O`, the half-life was determined as 1.5 min.
`COc1ccc(C(OCC2OC(n3ccc(=O)[nH]c3=O)C(NC(=O)[C@@H](CC(=O)OCc3ccccc3)NC(=O)OCC3c4ccccc4-c4ccccc43)C2O)(c2ccccc2)c2ccc(OC)cc2)cc1` (some centres undefined) gave a half-life of 8 min.
Under `COc1ccc(C(OCC2OC(n3ccc(=O)[nH]c3=O)C(NC(=O)[C@H](NC(=O)OCC3c4ccccc4-c4ccccc43)c3ccccc3)C2O)(c2ccccc2)c2ccc(OC)cc2)cc1` (some centres undefined) stands 3 min.
